Test results from US8536208B2, “Antifungal composition” (Basilea Pharmaceutica AG, priority 2007, dated 2013).

Assay: Single dose bioavailability study on fasted subjects
Settings: human, in vivo, Galenical formulation Example 4 (composition 2.3)
Procedure: A single dose bioavailability study is conducted on N fasted subjects using the composition of this Example (N=7, dose of compound I-A 433.3 mg corresponding to 400 mg free base of formula I-B), and the same amount in powder form filled into hard capsules, (N=6). BAL8557, a water-soluble prodrug of the compound of formula I-B according to EP-A-1 280 795, is used as a standard (capsule comprising BAL 8557 in powder form in an amount corresponding to 400 mg free base of formula I-B; N=3).

[1] = single oral dose 433.3 mg I-A (400 mg free base I-B), N=7

Q: What does the source list for `C[C@@H](c1nc(-c2ccc(C#N)cc2)cs1)[C@](O)(Cn1cncn1)c1cc(F)ccc1F.Cl` [Compound I-A]?
A: bioavailability (433.3 mg, single oral dose equal to 400 mg free base I-B, BAL 8557 as standard, read-out: Frel (relative bioavailability)): 90%; Cmax [1]: 4410 ng/mL; Tmax [1]: 1.5 h; half-life [1]: 88 h; AUC (single oral dose 433.3 mg I-A (400 mg free base I-B), N=7, read-out: AUCinfinite): 193 µg·h/mL
